Measured values reported in a melting point compilation (Tetko et al.; mined from patent text by program, amines drawn as free bases though some values may be those of a salt).

Row | Compound | melting point [°C]
1 | COc1ccc2c3c(c4cc(OC)c(OC)cc4c2c1)C[C@H](CO)N(C(=O)OC(C)(C)C)C3 | 105 to 107
2 | COc1ccc(-c2c[nH]c3cc(OC)c(OC)cc3c2=O)cc1 | 310 to 311
3 | CC(=O)OC1(C(C)=O)CCC2C3C=C(Cl)C4=CC(=O)OC(O)C4(C)C3CCC21C (stereo unspecified) | 276 to 278
4 | C#CCN(C)CC1=Cc2ccccc2Oc2ccccc21 | 66 to 67
5 | Nc1cnccc1-c1ccc(Cl)cc1 | 144 to 146
6 | COc1cccc(N(CC(=O)OC(C)(C)C)C(=O)CCl)c1 | 110
7 | COc1cccc(-c2cnc3[nH]cc(C(=O)C4(C)CCCCC4)c3n2)c1 | 173 to 175
8 | CC(C)(C)N(CC(=O)O)C(=O)C(NC(=O)c1ccccc1)SC(=O)c1ccccc1 (stereo unspecified) | 157 to 160
9 | Cc1nc2c(s1)CC(CO)CC2 (stereo unspecified) | 101 to 102
10 | CCCn1nc2c(N)nc3ccccc3c2c1CCNC(=O)Nc1ccc(F)c(F)c1 | 211 to 212
11 | CN(C)C(=O)C(=O)c1c[nH]c2ccc(Br)cc12 | 189 to 190
12 | CSCCC1=NS(=O)(=O)NC(N)=N1 | 243 to 246
13 | COc1cc(C(=O)NS(=O)(=O)c2ccccc2C)ccc1Cc1cn(C)c2ccc(CCNC(=O)N(C)C)cc12 | 124 to 131
14 | CCCc1nc(C(C)=O)c(C(=O)OCC)[nH]1 | 76 to 78
15 | CCN(CC)c1ccc(N)cc1C#N | 63 to 66
16 | c1ccc(C(N=C2CCCCC2)c2ccccc2)cc1 | 71 to 72
17 | CC(=O)[NH+]([O-])C[C@@H]1CN(c2ccc(N3CCN(S(C)(=O)=O)CC3)c(F)c2)C(=O)O1 (stereo partly specified) | 168 to 170
18 | O=[N+]([O-])C1=CN(Cc2ccccc2)C2C([N+](=O)[O-])=CN(Cc3ccccc3)C1N2Cc1ccccc1 | 184 to 185
19 | CC(C)(C)N1C(O)c2cccc(Cl)c2S1(=O)=O (stereo unspecified) | 139 to 141
20 | COC(=O)Cn1c(=O)[nH]c2ccc(C(=O)c3c(C)c(OC)c4ccccn34)cc2c1=O | 253
21 | CN1C(=O)C(C#N)(c2ccc(OCC3CO3)cc2)Sc2ccccc21 (stereo unspecified) | 136 to 139
22 | O=C1C2=C(NC3(C=N2)SCCS3)c2ccccc21 | 284 to 290
23 | CON=C(C)CC(C)(C)Cn1cnc2c(N)nc3ccccc3c21 | 148 to 150
24 | COC(=O)CC1=C(C)Cc2ccc(F)cc21 | 53
25 | O=C(N[C@H](Cc1ccc(F)cc1)[C@@H](O)c1ccc(F)cc1)C1CCCCC1 (racemic) | 203 to 204
26 | Nc1c([N+](=O)[O-])cc(F)c(Cl)c1F | 96 to 97

Row | Compound | melting point [°C]
27 | CCCCCCCCCCCCCCCCCCC1CC(=O)N(c2ccc([N+](=O)[O-])cc2O)C1=O (stereo unspecified) | 115 to 120
28 | OCCNc1cc(Nc2ccc(N3CCOCC3)cc2)ncn1 | 204 to 207
29 | CCSc1cc2ccccc2c(=O)n1Cc1ccccc1 | 79 to 80
30 | CN(C)c1ccccc1CS(=O)c1nc2c(n1-c1ccccn1)CCC2 (stereo unspecified) | 140 to 141
31 | CNC(=O)CN1CCc2cc(Nc3ncc(Cl)c(Nc4cc(Cl)ccc4OC)n3)c(OC)cc2CC1 | 127 to 136
32 | CC(C)(C)OC(=O)NC1CCc2cc3ccccc3n2C1 (stereo unspecified) | 137 to 139
33 | CC(Oc1ccc(Cl)cc1Cl)c1nnc(N)s1 (stereo unspecified) | 119 to 123
34 | CC(C)c1ccc(C(Cl)=NOS(C)(=O)=O)cc1 | 79.5 to 82
35 | COc1ccc(C(C)(O)c2sc(C)nc2C)cc1 (stereo unspecified) | 114 to 116
36 | ClCc1coc(-c2ccoc2)n1 | 70 to 71
37 | O=C1CCC2=C1C(c1ccc(Cl)c(F)c1)C1=C(CCS1)N2 (stereo unspecified) | > 260
38 | O=C(CN1CCN(C(=O)Nc2ccc(C(F)(F)F)cc2)CC1)N1CCC2(CC1)Cn1cc([N+](=O)[O-])nc1O2 | 153 to 155
39 | Nc1nc2nc(N3CCNCC3)nc(N)c2nc1-c1ccccc1 | 233 to 236
40 | O=C(O)CCCc1cccc(CNC(=O)C2Cc3ccccc3N2S(=O)(=O)c2ccc(-c3cccc(C(F)(F)F)c3)cc2)c1 (stereo unspecified) | 76
41 | OC(CNC1=NCCN1)c1ccc(Cl)cc1 (stereo unspecified) | 156 to 158
42 | CCS(=O)(=O)N(Cc1cccnc1)c1ccc(Oc2ccccc2)cc1 | 79 to 80
43 | CCc1nc(Cl)c([N+](=O)[O-])c(NC(C)C)n1 | 51 to 52
44 | CN(CCOc1ccc(C(N)=O)cc1)CCc1ccc(NS(C)(=O)=O)cc1 | 147
45 | CCC1(c2cn(Cc3ccc(Cl)cc3)cn2)Cc2ccccc2C1=O (stereo unspecified) | 150 to 154
46 | CCCCCCOCC1CN(c2cc3c(cc2F)c(=O)c(C(=O)O)cn3CC)CCN1C (stereo unspecified) | 172 to 174
47 | C[C@]1(COc2ccc(N3CCC(Nc4ccc(Cl)c(Cl)c4)CC3)cc2)Cn2cc([N+](=O)[O-])nc2O1 | 146 to 147
48 | COc1cc(C)nc(-c2ccc(CBr)cc2)n1 | 98 to 99
49 | CCOC(=O)C(Cl)=Cc1ccc([N+](=O)[O-])cc1 | 108 to 110
50 | Cc1cc(Oc2c(F)cc(C(F)(F)F)cc2Cl)n[nH]1 | 116 to 117
51 | O=C(Nc1nnn[nH]1)c1cccc([N+](=O)[O-])c1 | 276
52 | O=C(CCCCCCOc1ccccc1)c1nnc(COCc2ccccc2)o1 | 61 to 63

Row | Compound | melting point [°C]
53 | CON=C(N)C(F)(F)C(O)(Cn1cncn1)c1ccc(F)cc1F (stereo unspecified) | 114
54 | CS(=O)(=O)c1ccccc1NC(=O)c1ccccc1O | 142 to 145
55 | CC1COC2(c3ccccc3)c3cc(Cl)ccc3NC(=O)CN12 (stereo unspecified) | 84 to 98
56 | O=C(Nc1ccc(Cl)cc1)C(Oc1cccc2ccccc12)C1CC1 (stereo unspecified) | 204 to 206
57 | CCOC(=O)[C@H](CCc1ccccc1)N[C@@H](Cc1ccccc1)C(=O)NCCc1scnc1C(=O)O | 121 to 124
58 | CN1CCCC1=NC(=O)Nc1c(Cl)cccc1Cl | 134 to 136
59 | CN(C(=O)N(C)c1ccc(C(=O)O)cc1)c1ccc(C(=O)O)cc1 | 291 to 292
60 | CNC(=NC#N)NCCSCc1cccc(NC(N)=NCC(F)(F)F)n1 | 137 to 140
61 | CC(O)(Cc1ccc(C#N)cc1)Cc1ccc(C#N)cc1 | 147 to 148
62 | C=CCc1cc(C(C)=O)c(O)cc1OCCCCC | 54
63 | COCC(OC(C)=O)C1CC(=O)C2(C)CCC3C(CCC4=CC(=O)C=C(C)C43C)C12 (stereo unspecified) | 184 to 185
64 | COC[C@H]1CCCN1NC(=O)Nc1cccc2c1C(=O)c1c-2n[nH]c1-c1ccc(C(=O)N2CCN(C)CC2)s1 | 181 to 183
65 | CC(C)c1cccc(C(C)C)c1NC(=O)NC1CCCCC1c1ccccc1 (stereo unspecified) | 225 to 226
66 | Cc1cccc2c1NC(=O)C(CCCN1CCN(c3cccc(F)c3)CC1)S2 (stereo unspecified) | 132 to 134
67 | COc1ncccc1-c1ccc(OC2SCC(OC(C)=O)C(OC(C)=O)C2OC(C)=O)c(Cl)n1 (stereo unspecified) | 221
68 | CCc1cccc(-c2[nH]c(C(C)C)nc2-c2cccc(-c3ccc(S(C)(=O)=O)cc3)c2)n1 | 108 to 110
69 | C/C(O)=C(\C#N)C(=O)Sc1ccccc1 | 106 to 108
70 | O=C(O)Cc1ccc(NC(=O)c2ccccc2)cc1 | 207 to 208
71 | N#Cc1cc(C#N)cc(C=O)c1 | 203 to 204
72 | O=C1CCC(N2Cc3c(OCc4ccc(CN5CCOCC5)c(Cl)c4)cccc3C2=O)C(=O)N1 (stereo unspecified) | 240 to 242
73 | Nc1ccn(C2OC(CO)C(O)C2O[N+](=O)[O-])c(=O)n1 (stereo unspecified) | 151 to 153
74 | COc1ccc(CONC(=O)[C@@H](C(C)C)N(Cc2cccnc2)S(=O)(=O)c2ccc(OC)cc2)cc1 | 45 to 53
75 | CC(C)(O)c1ccc(-c2ccc(C(CC3CCOCC3)c3ccc(S(=O)(=O)C4CC4)cc3)[nH]2)nc1 (stereo unspecified) | 112 to 114
76 | COC(=O)CCCCC(C)C1CCC2C3CCC4CC(OC=O)CCC4(C)C3CC(OC=O)C12C (stereo unspecified) | 67 to 72
77 | COc1c2c(c(OC)c(OC)c1OC)CC(CCCCCCCCN1C(=O)c3ccccc3C1=O)C2 | 64 to 65
78 | COc1cc(OC)nc(C2(OC)OC(=O)c3c(Cl)cccc32)n1 (stereo unspecified) | 180 to 183

Row | Compound | melting point [°C]
79 | CC(C)c1ccc(CCCN(C)[C@H]2CC[C@H](c3ccc4[nH]c(=O)oc4c3)CC2)cc1 | 179 to 181
80 | Brc1cn2c(Br)cnc2c(N2CCOCC2)n1 | 141
81 | O=C(NCCO[N+](=O)[O-])c1csc(-c2cccc([N+](=O)[O-])c2)n1 | 149 to 152
82 | CNC(=S)C1(c2ccc(Cl)nc2)CCCCC1=O (stereo unspecified) | 172 to 173
83 | CCCCCCCCCCCCCC(=O)O[C@H](CCCCCCCCCCC)CC(=O)N[C@@H](CO)C(=O)OCc1ccccc1 | 56 to 61
84 | Cc1nc2cc(C(=O)Nc3ccccc3)ccc2o1 | 138 to 139
85 | Fc1ccc(C(CCCN2CCN(c3n[nH]c4cc(Cl)ccc34)CC2)c2ccc(F)cc2)cc1 | 202 to 204
86 | O=C(O)CCCc1ccc(-c2ccc(F)cc2F)cc1 | 76 to 77
87 | CC(O)=C(C#N)C(=O)Nc1ccc(F)cc1 | 165 to 166
88 | COc1ccc(-c2cnc(S(C)(=O)=O)nc2)cc1OC1CCCC1 | 188 to 190
89 | CCCCCc1ccc(C#Cc2c3ccccc3c3ccc4c(C#Cc5ccc(CCCCC)cc5)c5ccccc5c5ccc2c3c45)cc1 | 256 to 257
90 | O=C(C1CCCC1)N1C=C2c3ccccc3C3CC2(C1)c1ccccc13 (stereo unspecified) | 185 to 186
91 | CC(C)(COC(=O)c1ccc(C(=O)O)cc1)COC(=O)c1ccc(C(=O)O)cc1 | 287 to 288
92 | Nc1nc(-c2cccc3ccccc23)cc2ccc(Cl)cc12 | 180 to 181
93 | O=C1SCC(O)=C1Cc1ccc2ccccc2c1 | 238 to 239
94 | CC(=O)NCCCC(=NNC(N)=S)c1ccccc1 | 74 to 83
95 | C=C(C)C(=O)OCCCc1ccc(-c2ccc(OC(=O)C(=C)C)cc2)cc1 | 69
96 | CC(=NOC(=O)Nc1ccccc1)C(C)N(C(=O)CCl)c1c(C)cccc1C (stereo unspecified) | 115 to 117
97 | CC(Nc1nc(N)nc(C(F)(F)F)n1)c1ccc(Cl)cc1 (stereo unspecified) | 99
98 | CC(=O)Oc1ccc(C=CC(=O)NC23CC4CC(CC(C4)C2)C3)cc1[N+](=O)[O-] | 179 to 180
99 | c1ccc(CN(c2ccccc2)c2ccccc2)cc1 | 86
100 | CN1C(=O)CC(C)(C)c2cc(C3(C)OCCO3)ccc21 | 81 to 83
101 | COc1ccc(C2CNC(=O)C2)cc1C1CCCC1 (stereo unspecified) | 139
